Drawing on PubChem BioAssay (NCI), this text covers TGI and GI50 for 14 compounds.

What all share (test): growth of human tumour cells (NCI), 48 h
Assay [1] has as its system SK-MEL-2 melanoma.
The test system of assay [2] is NCI-H23 lung.
Assay [3] has as its system MDA-MB-231 breast.
Assay [4] deals with SN12C renal.
For assay [5], the system named is KM12 colon.
In assay [6] the test system is UO-31 renal.
For assay [7], the system named is SK-OV-3 ovarian.
The test system of assay [8] is NCI-H460 lung.
For assay [9], the system named is OVCAR-8 ovarian.
In assay [10] the test system is SF-268 CNS.

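Compound exposure: 48 hours, 5 concentrations, 96-well plates. At the GI50, growth is halved. TGI is the concentration that stops growth completely.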

Take `COc1ccccc1N1C(=O)/C(=C\c2cccc(Oc3ccccc3)c2)S(=O)(=O)C1c1ccccc1` (stereo not given): the TGI in [1] was 70.5 µM; in assay [2] it was over 100 µM; in [3], over 100 µM; in assay [4] it was over 100 µM; in assay [5], over 100 µM; in assay [6], over 100 µM. The TGI in assay [7] and in [8] was over 100 µM in each case.

On to `c1cc2ccc1CNCCN1CCNCc3ccc(cc3)Oc3ccc(cc3)CNCCN(CCNCc3ccc(cc3)O2)CCNCc2ccc(cc2)Oc2ccc(cc2)CNCC1`, for which the GI50 is 1.6 µM in assay [1]; 0.521 µM in [3]; 0.446 µM in assay [4]; 1.77 µM in assay [5]; 11.3 µM in assay [6]; 1.72 µM in [7]. Also, the GI50 in assay [8] was 1.71 µM. For the same compound, the TGI in assay [1] turned out to be 3.14 µM; in assay [3], 1.75 µM; in assay [4], 1.57 µM; in assay [5] it was 3.22 µM; in assay [6], 26.4 µM; in assay [7], 3.15 µM. The compound further came in with a TGI in assay [8] of 3.27 µM.

As to `CCOC(=O)c1cc(-c2ccn(C(C)=O)c2)c(-c2cc(C)co2)[nH]1`, the TGI in [9], in assay [1], in [10], in assay [2], in [3] and in [4] was over 100 µM in each case. The TGI in assay [5], in assay [6] and in [8] was over 100 µM in each case.

`Cc1ccc(S(=O)(=O)N2CCN(CCO)CCN(S(=O)(=O)c3ccc(C)cc3)CCN(CCO)CC2)cc1`: the TGI was over 100 µM in assay [9]; 35.2 µM in assay [1]; over 100 µM in assay [10]; 45.9 µM in assay [2]; 48.4 µM in assay [3]; over 100 µM in [4]. Moreover, the values for the TGI in assay [5], in [6] and in assay [8] were 38.6 µM, over 100 µM and 28.7 µM, respectively.

`O=C(O)CCCc1ccc2c(c1)CC1(C2)Cc2ccc(CCCC(=O)O)cc2C1`: the TGI in assay [9], in assay [1], in assay [2], in assay [3], in [4] and in [5] was over 100 µM each time. Also, the TGI in assay [6] and in assay [7] was over 100 µM in each case.

For the compound `C=C(C(=O)OC)[C@H]1CC/C(C)=C/CC/C(C)=C/CC[C@@]2(C)O[C@@H]2C1`, the TGI in [9] amounted to 31.4 µM; in assay [1], 29.9 µM; in assay [2], 68.1 µM; in assay [3], 33.6 µM; in [4], 31.2 µM; in assay [5], 37.6 µM. For the same compound, the values for the TGI in [6] and in assay [7] were 55 µM and over 100 µM, respectively.

As for `CC1(C)Oc2ccc3c(=O)c4ccccc4oc3c2C1C(=O)O` (stereo not given), the TGI in assay [9], in assay [1], in assay [10], in assay [2], in assay [3] and in [4] was over 100 µM in each case. In addition, the TGI in assay [7] is over 100 µM.

With `N#Cc1c(C#N)c(-c2ccccc2)n(/N=C\c2ccccc2)c1N`, the TGI is over 100 µM in assay [9]; 87.3 µM in assay [1]; over 100 µM in [10]; over 100 µM in assay [2]; 65.3 µM in assay [3]; over 100 µM in assay [4]. Moreover, the TGI is over 100 µM in assay [5], 81.8 µM in [6] and 70.2 µM in assay [7].

Consider `c1ccc(CNc2ncnc3n[nH]nc23)cc1`, for which the TGI in assay [9], in assay [1], in assay [2], in assay [3], in [4] and in assay [5] was over 100 µM throughout. Besides, the TGI in assay [6] and in assay [7] was over 100 µM throughout.

`CN(C)c1ccc(/C=C2\C[C@H]3[C@@H]4CCc5cc(O)ccc5[C@H]4CC[C@]3(C)C2=O)cc1`: the TGI in assay [9] is over 100 µM; in assay [1], over 100 µM; in [10] it was 61 µM; in [2], over 100 µM; in assay [3], 69 µM; in assay [5], over 100 µM. Besides, the TGI in assay [6], in [7] and in assay [8] was over 100 µM each time.

As to `COC(=O)C1=C(C)NC2(C)OC(C)(O)C(C(C)=O)C12C(C)=O` (stereo not given), the TGI in assay [9] was over 100 µM; in [1], 54.6 µM; in assay [10], over 100 µM; in assay [2], over 100 µM; in [3], over 100 µM; in assay [4], over 100 µM. Further, the TGI is over 100 µM in [5], 85.8 µM in [7] and over 100 µM in [8].

For the compound `CCCCCCCCCCCCCCCCNc1ccn(C2CC(OP(=O)(O)OCC3OC(n4cc(CC)c(=O)[nH]c4=O)CC3O)C(CO)O2)c(=O)n1` (stereo not given), the TGI is 43.6 µM in [9]; 39.1 µM in [1]; 33.5 µM in assay [10]; over 100 µM in [2]; 68.3 µM in assay [3]; over 100 µM in [4]. Moreover, the values for the TGI in assay [5], in [6] and in assay [7] were 29.6 µM, 53 µM and 82.1 µM, respectively.

Take `CN(C)C=Nc1nncc2n[nH]nc12`: the TGI in [9], in assay [1], in assay [10], in assay [2], in assay [3] and in assay [4] was over 100 µM each time. The TGI in [5], in assay [6] and in [8] was over 100 µM throughout.

Turning to `CC(C)CC(NC(=O)C(COc1ccc([N+](=O)[O-])cc1)Cc1ccccc1)C(=O)Nc1ccccc1` (stereo not given), the TGI was 27.4 µM in assay [9]; 74.1 µM in assay [1]; 28.7 µM in assay [2]; 80.3 µM in [3]; over 100 µM in [4]; 21.5 µM in [5]. In addition, the TGI in assay [6] worked out at 24.5 µM; in [7] it was 28.5 µM; in assay [8], 13.2 µM.
